Data published in patent publication US6512007B1, “Use of galiella lactone” (Bayer Aktiengesellschaft, priority 2000, dated 2003).

Tested on: Stat3
Assay: IL-6-induced phosphorylation of Stat3 (tyrosine-705, serine-727) in HepG2 cells, immunoprecipitation/Western blot
Assay type: cell-based, human
Conditions: HepG2, IL-6 50 ng/ml; all concentrations tested, up to 16 μg/ml, equivalent to 165 μM
Text: A crucial step in IL-6-dependent intracellular signal transduction is the phosphorylation of tyrosine-705 in Stat3 and tyrosine-701 in Stat1. […] However, inhibitors which inhibit the Stat3 and Stat1 phosphorylation also have crucial effects on other signal cascades, and therefore pharmaceutically usable inhibitors of IL-6-dependent gene expression should, in the concentration range in which they display their pharmacological effect, affect the Stat3 or Stat1 phosphorylation only slightly or not at all.
Seed out HepG2 cells in Petri dishes (diameter: 10 cm) (OptiMEM medium with 10% fetal calf serum and penicillin/streptomycin (100 iu) cell density: 5×10^5 cell/ml). Incubate in a moist atmosphere with 5% CO2 at 37° C. for 24 h. Replace medium by fresh OptiMEM medium with 0.5% fetal calf serum and penicillin/streptomycin (100 iu) and incubate for a further 48 h. Replace medium by fresh OptiMEM medium with 0.5% fetal calf serum and penicillin/streptomycin (100 iu), add test substances in various concentrations, and incubate for 60 min. 5 μl of the substances dissolved in ethanol, or only ethanol (controls), were added per mixture (10 ml). Induce cells by adding IL-6 (final concentrations 50 ng/ml).
After 20 min. remove medium and wash cell lawn twice wtih 1.5 ml of ice-cold PBS (137 mM NaCl, 2.7 mM KCl, 8.1 mM Na2HPO4×2H2O, 1.5 mM KH2PO4) each time. […]

Question: With `C[C@H]1C=C2C(=O)O[C@H]3CC[C@@H](C1)[C@@]23O` [galiella lactone] as the molecule, how does the “effect on the phosphorylation of Stat3” value read?
Answer: no effect
